The text below walks through data of US9708306B2, “Benzimidazole derivatives and preparation process and pharmaceutical uses thereof” (WUHAN LL SCIENCE AND TECHNOLOGY DEVELOPMENT CO., LTD, priority 2015, dated 2017).

For experiment [1], the system named is renovascular hypertensive rats. The experiment is described as follows: Effect on reducing blood pressure of renovascular hypertensive rats by single oral administration. The format is in vivo, Wistar rats. To be noted: for change in vivo at 0.5 mg/kg / inhibition in vivo at 0.5 mg/kg / change in vivo at 1 mg/kg / inhibition in vivo at 1 mg/kg / change in vivo at 2 mg/kg / inhibition in vivo at 2 mg/kg: Rattus norvegicus, single oral administration; for change in vivo at 0.5 mg/kg / change in vivo at 1 mg/kg / change in vivo at 2 mg/kg: RHR, read-out: Variations on heart rate; for inhibition in vivo at 0.5 mg/kg / inhibition in vivo at 1 mg/kg / inhibition in vivo at 2 mg/kg: two-kidney one-clip RHR, measured 1-10 h, read-out: Maximum blood pressure reduction.

The next experiment concerns normal rats. The experiment is described as follows: Effect on blood pressure of normal rats by single oral administration. The format is in vivo, Wistar rats. The conditions noted are these: Rattus norvegicus, po, single, normal rats; for inhibition in vivo at 0.5 mg/kg / inhibition in vivo at 1 mg/kg / inhibition in vivo at 2 mg/kg: 8 h, read-out: blood pressure reduction at 8 h after the administration; for inhibition in vivo at 0.5 mg/kg / change in vivo at 0.5 mg/kg: 0.5 mg/kg p.o.; for inhibition in vivo at 1 mg/kg / change in vivo at 1 mg/kg: 1.0 mg/kg p.o.; for inhibition in vivo at 2 mg/kg / change in vivo at 2 mg/kg: 2.0 mg/kg p.o.; for change in vivo at 0.5 mg/kg / change in vivo at 1 mg/kg / change in vivo at 2 mg/kg: read-out: variations on heart rate.

For the compound `CCOc1nc2cccc(C(=O)Oc3ccc(OCc4c(-c5ccccc5)no[n+]4[O-])cc3)c2n1Cc1ccc(-c2ccccc2-c2noc(=O)[nH]2)cc1` [QR01010], in experiment [1], the change in vivo at 0.5 mg/kg came to 5%, the inhibition in vivo at 0.5 mg/kg was found to be 21 ± 4.7%, the change in vivo at 1 mg/kg is -3 ± 1% and the inhibition in vivo at 1 mg/kg was found to be 26 ± 5.4%. In experiment [1], the change in vivo at 2 mg/kg was -5 ± 3% and the inhibition in vivo at 2 mg/kg is 30 ± 3.6%. In the experiment with normal rats, the inhibition in vivo at 0.5 mg/kg came out at 2.1 ± 3.2%, the inhibition in vivo at 1 mg/kg stood at 4.6 ± 4.7%, the inhibition in vivo at 2 mg/kg came to 5.7 ± 2.3% and the change in vivo at 0.5 mg/kg came to 5%. For the same compound, in the experiment with normal rats, the change in vivo at 1 mg/kg was -5 ± 1% and the change in vivo at 2 mg/kg is -4 ± 5%.
On to `CCOc1nc2cccc(C(=O)OCc3no[n+]([O-])c3C(C)(C)C)c2n1Cc1ccc(-c2ccccc2-c2noc(=O)[nH]2)cc1` [QR01026], for which, in experiment [1], the change in vivo at 0.5 mg/kg was -8 ± 6%, the inhibition in vivo at 0.5 mg/kg stood at 16 ± 2.8%, the change in vivo at 1 mg/kg is -10 ± 5% and the inhibition in vivo at 1 mg/kg came out at 24 ± 6.5%. In experiment [1], the change in vivo at 2 mg/kg is -10 ± 6% and the inhibition in vivo at 2 mg/kg amounted to 31 ± 2.8%. Besides, in the experiment with normal rats, the inhibition in vivo at 0.5 mg/kg is 5.2 ± 3.2%, the inhibition in vivo at 1 mg/kg was found to be 4.3 ± 5.1%, the inhibition in vivo at 2 mg/kg was 3.8 ± 4.5% and the change in vivo at 0.5 mg/kg was -5 ± 8%. For the same compound, in the experiment with normal rats, the change in vivo at 1 mg/kg was -3 ± 7% and the change in vivo at 2 mg/kg is -4 ± 7%.
With `CCOc1nc2cccc(C(=O)OC(C)OC(=O)OCc3ccn(C)c3)c2n1Cc1ccc(-c2ccccc2-c2noc(=O)[nH]2)cc1` (stereo not shown) [QR01033], in experiment [1], the change in vivo at 0.5 mg/kg is -8 ± 2%, the inhibition in vivo at 0.5 mg/kg is 19 ± 2.1%, the change in vivo at 1 mg/kg was -15 ± 6% and the inhibition in vivo at 1 mg/kg is 26 ± 3.7%. Moreover, in experiment [1], the change in vivo at 2 mg/kg was -19 ± 7% and the inhibition in vivo at 2 mg/kg turned out to be 32 ± 4%. In addition, in the experiment on normal rats, the inhibition in vivo at 0.5 mg/kg is 2.3 ± 3.2%, the inhibition in vivo at 1 mg/kg came out at 6.4 ± 2.9%, the inhibition in vivo at 2 mg/kg was 4.2 ± 5% and the change in vivo at 0.5 mg/kg is -3 ± 4%. In addition, in the experiment with normal rats, the change in vivo at 1 mg/kg is -5 ± 3% and the change in vivo at 2 mg/kg is -1 ± 7%.
On to `CCOc1nc2cccc(C(=O)OCOC(=O)OCc3ccn(C)c3)c2n1Cc1ccc(-c2ccccc2-c2noc(=O)[nH]2)cc1` [QR01032], for which, in experiment [1], the change in vivo at 0.5 mg/kg is -8 ± 6%, the inhibition in vivo at 0.5 mg/kg came to 20 ± 4.1%, the change in vivo at 1 mg/kg was -9 ± 4% and the inhibition in vivo at 1 mg/kg stood at 28 ± 3.1%. Also, in experiment [1], the change in vivo at 2 mg/kg is -9 ± 5% and the inhibition in vivo at 2 mg/kg turned out to be 35 ± 4.6%. The “blood pressure reduction effect compared with Azilsartan medoxomil” value in experiment [1] (renal artery-ligated rat, result in words) is “close to that of Azilsartan medoxomil”. Moreover, in the experiment on normal rats, the inhibition in vivo at 0.5 mg/kg was 4.7 ± 3.1%, the inhibition in vivo at 1 mg/kg was 5.2 ± 2.7%, the inhibition in vivo at 2 mg/kg was found to be 4.8 ± 3.6% and the change in vivo at 0.5 mg/kg is -8 ± 6%. In the experiment on normal rats, the change in vivo at 1 mg/kg was -5 ± 2% and the change in vivo at 2 mg/kg is -3 ± 5%.
Take `CCOC(=O)C(=O)OC(C)C(=O)COC(=O)c1cccc2nc(OCC)n(Cc3ccc(-c4ccccc4-c4noc(=O)[nH]4)cc3)c12` (stereo not shown) [QR01015]: in experiment [1], the change in vivo at 0.5 mg/kg came out at 4%, the inhibition in vivo at 0.5 mg/kg worked out at 10 ± 1.5%, the change in vivo at 1 mg/kg worked out at 2% and the inhibition in vivo at 1 mg/kg is 12 ± 2%. Also, in experiment [1], the change in vivo at 2 mg/kg amounted to 3% and the inhibition in vivo at 2 mg/kg is 18 ± 3.5%. Further, in the experiment on normal rats, the inhibition in vivo at 0.5 mg/kg was 3.7 ± 2.6%, the inhibition in vivo at 1 mg/kg was determined as 2.3 ± 1.8%, the inhibition in vivo at 2 mg/kg is 1.8 ± 2.4% and the change in vivo at 0.5 mg/kg is 3%. Further, in the experiment on normal rats, the change in vivo at 1 mg/kg stood at 1% and the change in vivo at 2 mg/kg was -3 ± 3%.
As for `CCOc1nc2cccc(C(=O)OCOC(=O)OCc3cn(C)cn3)c2n1Cc1ccc(-c2ccccc2-c2noc(=O)[nH]2)cc1` [QR01031], in experiment [1], the change in vivo at 0.5 mg/kg is -11 ± 5%, the inhibition in vivo at 0.5 mg/kg is 18 ± 3.5%, the change in vivo at 1 mg/kg is -18 ± 6% and the inhibition in vivo at 1 mg/kg is 25 ± 5.7%. For the same compound, in experiment [1], the change in vivo at 2 mg/kg is -17 ± 5% and the inhibition in vivo at 2 mg/kg amounted to 32 ± 2.6%. Also, in the experiment on normal rats, the inhibition in vivo at 0.5 mg/kg was 2.9 ± 2.6%, the inhibition in vivo at 1 mg/kg was determined as 4.5 ± 3.8%, the inhibition in vivo at 2 mg/kg was found to be 4.7 ± 3.1% and the change in vivo at 0.5 mg/kg is -5 ± 5%. Further, in the experiment with normal rats, the change in vivo at 1 mg/kg is -4 ± 3% and the change in vivo at 2 mg/kg was -8 ± 4%.
For `CCOc1nc2cccc(C(=O)OCc3oc(=O)c(=O)oc3C)c2n1Cc1ccc(-c2ccccc2-c2noc(=O)[nH]2)cc1` [QR01014], in experiment [1], the change in vivo at 0.5 mg/kg is -2 ± 3%, the inhibition in vivo at 0.5 mg/kg came out at 16 ± 3.5%, the change in vivo at 1 mg/kg is -4 ± 2% and the inhibition in vivo at 1 mg/kg stood at 21 ± 4.3%. In addition, in experiment [1], the change in vivo at 2 mg/kg was -4 ± 5% and the inhibition in vivo at 2 mg/kg is 26 ± 2.1%. In the experiment with normal rats, the inhibition in vivo at 0.5 mg/kg came out at 2.9 ± 3.4%, the inhibition in vivo at 1 mg/kg was determined as 2.7 ± 3.6%, the inhibition in vivo at 2 mg/kg was found to be 4.6 ± 3.2% and the change in vivo at 0.5 mg/kg is -4 ± 2%. Further, in the experiment on normal rats, the change in vivo at 1 mg/kg was -3 ± 3% and the change in vivo at 2 mg/kg was determined as 4%.
As for `CCOc1nc2cccc(C(=O)OCOC(=O)OC(C)C)c2n1Cc1ccc(-c2ccccc2-c2noc(=O)[nH]2)cc1` [QR01002], in experiment [1], the change in vivo at 0.5 mg/kg is -5 ± 4%, the inhibition in vivo at 0.5 mg/kg was determined as 12 ± 2.4%, the change in vivo at 1 mg/kg is -8 ± 3% and the inhibition in vivo at 1 mg/kg worked out at 15 ± 1.8%. In experiment [1], the change in vivo at 2 mg/kg is -6 ± 4% and the inhibition in vivo at 2 mg/kg came to 19 ± 4.2%. Further, in the experiment on normal rats, the inhibition in vivo at 0.5 mg/kg stood at 5.6 ± 2.3%, the inhibition in vivo at 1 mg/kg was determined as 6.4 ± 2.1%, the inhibition in vivo at 2 mg/kg is 6.4 ± 2.1% and the change in vivo at 0.5 mg/kg is -4 ± 5%. In the experiment on normal rats, the change in vivo at 1 mg/kg was -5 ± 4% and the change in vivo at 2 mg/kg was found to be 5%.
On to `CCOc1nc2cccc(C(=O)OCOC(=O)OCc3ccno3)c2n1Cc1ccc(-c2ccccc2-c2noc(=O)[nH]2)cc1` [QR01030], for which, in experiment [1], the change in vivo at 0.5 mg/kg was -12 ± 6%, the inhibition in vivo at 0.5 mg/kg was found to be 18 ± 2%, the change in vivo at 1 mg/kg was -20 ± 6% and the inhibition in vivo at 1 mg/kg was found to be 25 ± 3.6%. Moreover, in experiment [1], the change in vivo at 2 mg/kg was -18 ± 7% and the inhibition in vivo at 2 mg/kg was 30 ± 4.6%. In the experiment on normal rats, the inhibition in vivo at 0.5 mg/kg is 2.9 ± 3%, the inhibition in vivo at 1 mg/kg stood at 5.2 ± 4.3%, the inhibition in vivo at 2 mg/kg amounted to 3.7 ± 5.8% and the change in vivo at 0.5 mg/kg was -2 ± 4%. In the experiment with normal rats, the change in vivo at 1 mg/kg worked out at 4% and the change in vivo at 2 mg/kg is -3 ± 5%.
On to `CCOc1nc2cccc(C(=O)ONC(=N)Nc3ccccc3)c2n1Cc1ccc(-c2ccccc2-c2noc(=O)[nH]2)cc1` [QR01012], for which, in experiment [1], the change in vivo at 0.5 mg/kg was found to be 2%, the inhibition in vivo at 0.5 mg/kg was determined as 17 ± 3.7%, the change in vivo at 1 mg/kg was -3 ± 4% and the inhibition in vivo at 1 mg/kg came out at 22 ± 1%. In experiment [1], the change in vivo at 2 mg/kg was -5 ± 2% and the inhibition in vivo at 2 mg/kg was 27 ± 2.8%. In addition, in the experiment with normal rats, the inhibition in vivo at 0.5 mg/kg amounted to 1.9 ± 3.2%, the inhibition in vivo at 1 mg/kg is 3.9 ± 2.1%, the inhibition in vivo at 2 mg/kg stood at 4.6 ± 2.4% and the change in vivo at 0.5 mg/kg is 1%. Moreover, in the experiment with normal rats, the change in vivo at 1 mg/kg was -3 ± 2% and the change in vivo at 2 mg/kg was -3 ± 4%.
